Experimental data: publication PMC11620503 (Antimicrobial Agents and Chemotherapy, 2024)
In brackets after ≈: the same amount, converted by molar mass. Like-named read-outs stand apart in the source and are kept apart here.

Legend:
Test in all cases: MIC, broth microdilution
[1] = tested on: 207 Enterobacterales including carbapenem-resistant isolates; assay type: cell-based
[2] = tested on: MEM-nonsusceptible Enterobacterales; assay type: cell-based; conditions: MEM-nonsusceptible Enterobacterales (127), cefiderocol 126 isolates
[3] = tested on: serine-carbapenemase-producing isolates (Enterobacterales); assay type: cell-based; conditions: Enterobacterales with serine-carbapenemases (80)
[4] = tested on: MBL-producing isolates (Enterobacterales); assay type: cell-based; conditions: for MIC90: read-out: MIC90
[5] = tested on: 55 isolates of A. baumannii; assay type: cell-based, Acinetobacter baumannii; conditions: Acinetobacter baumannii (55)
[6] = tested on: 96 P. aeruginosa; assay type: cell-based, Pseudomonas aeruginosa; conditions: Pseudomonas aeruginosa (96)
[7] = tested on: E. coli CDC-137 (NDM-6), PBP3 mutations; assay type: cell-based; conditions: Escherichia coli, fixed BLI concentration (μg/mL) in parentheses in label
[8] = tested on: E. coli CDC-151 (NDM-5), PBP3 mutations; assay type: cell-based; conditions: Escherichia coli, fixed BLI concentration (μg/mL) in parentheses in label
[9] = tested on: MEM-nonsusceptible Enterobacterales with metallo-carbapenemases; assay type: cell-based; conditions: MEM-nonsusceptible Enterobacterales with metallo-carbapenemases (55), cefiderocol 54 isolates
[10] = All Enterobacterales (207), cefiderocol 205 isolates, CLSI breakpoints, marked c: breakpoints for β-lactam alone, tigecycline: FDA breakpoints
[11] = CLSI breakpoints, marked c: breakpoints for β-lactam alone, tigecycline: FDA breakpoints
[12] = fixed concentration (μg/mL) in label, read-out: MIC50
[13] = fixed concentration (μg/mL) in label, read-out: MIC90
[14] = fixed concentration (μg/mL) in label
[15] = Enterobacterales with metallo-carbapenemases (74), cefiderocol 73 isolates, CLSI breakpoints, marked c: breakpoints for β-lactam alone, tigecycline: FDA breakpoints
[16] = CLSI breakpoints, marked c: breakpoints for β-lactam alone

`CC(C)(O/N=C(\C(=O)N[C@@H]1C(=O)N2C(C(=O)[O-])=C(C[N+]3(CCNC(=O)c4ccc(O)c(O)c4Cl)CCCC3)CS[C@H]12)c1csc(N)n1)C(=O)O` [FDC, cefiderocol] was tested, and the “CLSI MIC interpretation I (intermediate)” value [1, 10] was 2%, the “CLSI MIC interpretation R (resistant)” value [1, 10] was 0.5% and the “CLSI MIC interpretation S (susceptible)” value [1, 10] was 97.6%. For the same compound, the MIC50 ([1]; read-out: MIC50) was 0.5 µg/mL (≈ 0.665 µM), the MIC90 ([1]; read-out: MIC90) was 2 µg/mL (≈ 2.66 µM) and the “CLSI MIC interpretation I (intermediate)” value [2, 11] was 3.2%. For the same compound, the “CLSI MIC interpretation R (resistant)” value [2, 11] was 0.8%, the “CLSI MIC interpretation S (susceptible)” value [2, 11] was 96% and the MIC50 [2, 12] was 1 µg/mL (≈ 1.33 µM). For the same compound, the MIC90 [2, 13] was 2 µg/mL (≈ 2.66 µM), the “CLSI MIC interpretation I (intermediate)” value [3, 11] was 0% and the “CLSI MIC interpretation R (resistant)” value [3, 11] was 0%. The “CLSI MIC interpretation S (susceptible)” value [3, 11] was 100%, the “MIC Range” value [3, 14] was at most 0.06 to 4 µg/mL and the MIC50 [3, 12] was 0.25 µg/mL (≈ 0.332 µM). The MIC90 [3, 13] was 2 µg/mL (≈ 2.66 µM), the “CLSI MIC interpretation I (intermediate)” value [4, 15] was 5.5% and the “CLSI MIC interpretation R (resistant)” value [4, 15] was 1.4%. The “CLSI MIC interpretation S (susceptible)” value [4, 15] was 93.2%, the MIC50 ([4]; Enterobacterales with metallo-carbapenemases (74), cefiderocol 73 isolates, fixed concentration (μg/mL) in label, read-out: MIC50) was 1 µg/mL (≈ 1.33 µM) and the MIC90 ([4]; Enterobacterales with metallo-carbapenemases (74), cefiderocol 73 isolates, fixed concentration (μg/mL) in label) was 4 µg/mL (≈ 5.32 µM). The MIC90 ([4]; MBL-producing isolates, comparators) was at most 4 µg/mL, the “CLSI MIC interpretation I (intermediate)” value [5, 16] was 3.6% and the “CLSI MIC interpretation R (resistant)” value [5, 16] was 1.8%. For the same compound, the “CLSI MIC interpretation S (susceptible)” value [5, 16] was 94.5%, the “MIC Range” value [5, 14] was at most 0.06 to 16 µg/mL and the MIC50 [5, 12] was 0.5 µg/mL (≈ 0.665 µM). The MIC90 [5, 13] was 4 µg/mL (≈ 5.32 µM), the “CLSI MIC interpretation I (intermediate)” value [6, 16] was 0% and the “CLSI MIC interpretation R (resistant)” value [6, 16] was 0%. The “CLSI MIC interpretation S (susceptible)” value [6, 16] was 100%, the “MIC Range” value [6, 14] was at most 0.06 to 4 µg/mL and the MIC50 [6, 12] was 0.5 µg/mL (≈ 0.665 µM). For the same compound, the MIC90 [6, 13] was 2 µg/mL (≈ 2.66 µM), the MIC [7] was 2 µg/mL (≈ 2.66 µM) and the MIC [8] was 4 µg/mL (≈ 5.32 µM). The “CLSI MIC interpretation I (intermediate)” value [9, 11] was 7.4%, the “CLSI MIC interpretation R (resistant)” value [9, 11] was 1.9% and the “CLSI MIC interpretation S (susceptible)” value [9, 11] was 90.7%. It also gave an MIC50 [9, 12] of 1 µg/mL (≈ 1.33 µM) and an MIC90 [9, 13] of 4 µg/mL (≈ 5.32 µM).
